Reference: patent publication US20030073740A1, “Methods for treatment of lupus erythematosus” (priority 2001, published 2003)
Where two headings read alike, the source gives them in different places.

Legend:
[1] = biological target: T1, GST-cGB-PDE5 fusion protein (cGMP binding sites of human PDE5A) (Homo sapiens, UniProt O76074); assay: cGMP binding assay with GST-cGB-PDE5 fusion protein; conditions: for competition with cGMP binding to GST-cGB-PDE5 at high concentration: 100 μM compound, cGMP 2 μM
T1 construct: made in house; host or cells: E. coli BL21 (DE3)
Excerpt: RT-PCR method is used to obtain the cGB domain of PDE5 with forward and reverse primers designed from bovine PDE5A cDNA sequence (McAllister-Lucas L. M. et al, J. Biol. Chem. 268, 22863-22873, 1993) and the selection among PDE 1-10 families. 5′-3′, Inc. kits for total RNA followed by oligo (dT) column purification of mRNA are used with HT-29 cells. […] It is then cloned into pGEX-5X-3 glutathione-S-transferase (GST) fusion vector (Pharmacia Biotech )with tac promoter, and EcoR1 and XhoI cut sites. The fusion vector is then transfected into E. Coli BL21 (DE3) bacteria (Invitrogen). The transfected BL21 bacteria is grown to log phase, and then IPTG is added as an inducer. The induction is carried at 20° C. for 24 hrs. The bacteria are harvested and lysed. The soluble cell lysate is incubated with GSH conjugated Sepharose 4B (GSH-Sepharose 4B). The GST-cGB-PDE5 fusion protein can bind to the GSH-Sepharose beads, and the other proteins are washed off from beads with excessive cold PBS.
Then, the mixture is transferred to Brandel MB-24 cell harvester with GF/B as the filter membrane followed by 2 washes with 10 mL of cold 5 mM potassium buffer(pH 6.8). The membranes are then cut out and transferred to scintillation vials followed by the addition of 1 mL of H2O and 6 mL of Ready Safe™ liquid scintillation cocktail to each vial. The vials are counted on a Beckman LS 6500 scintillation counter.
The quenching by filter membrane or other debris are also calibrated.

[2] = biological target: T2, COX I (purified cyclooxygenase Type I) (Ovis aries, UniProt P05979); assay: Cyclooxygenase (COX) inhibition, purified COX; format: biochemical, ram; conditions: arachidonic acid 100 μM, 2.0 min, 37° C.
T2 construct: The COX was purified from ram seminal vesicles; from tissue; host or cells: ram seminal vesicles
T2 sequence (P05979 25-600): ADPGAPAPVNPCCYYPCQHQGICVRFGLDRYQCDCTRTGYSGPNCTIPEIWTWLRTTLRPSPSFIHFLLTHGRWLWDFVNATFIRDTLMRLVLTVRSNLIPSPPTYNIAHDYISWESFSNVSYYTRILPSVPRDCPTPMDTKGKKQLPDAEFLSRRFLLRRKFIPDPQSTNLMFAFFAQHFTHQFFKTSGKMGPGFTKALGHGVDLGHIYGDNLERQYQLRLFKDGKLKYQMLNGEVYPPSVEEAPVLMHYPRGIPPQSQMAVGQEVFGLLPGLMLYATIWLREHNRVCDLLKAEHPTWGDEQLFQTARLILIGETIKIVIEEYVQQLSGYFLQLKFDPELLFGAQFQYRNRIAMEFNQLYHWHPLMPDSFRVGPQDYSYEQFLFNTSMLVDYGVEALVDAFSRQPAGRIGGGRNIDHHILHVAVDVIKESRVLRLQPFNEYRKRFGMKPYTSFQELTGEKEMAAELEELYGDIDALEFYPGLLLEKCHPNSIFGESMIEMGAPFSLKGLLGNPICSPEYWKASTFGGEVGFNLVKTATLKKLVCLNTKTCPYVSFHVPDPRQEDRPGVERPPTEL
Method: COX catalyzes the formation of prostaglandins and thromboxane by the oxidative metabolism of arachidonic acid. The compound of Example 1 of this invention, as well as a positive control, (sulindac sulfide) were evaluated to determine whether they inhibited purified cyclooxygenase Type I (see Table 1 below).
The compounds of this invention were evaluated for inhibitory effects on purified COX. The COX was purified from ram seminal vesicles, as described by Boopathy, R. and Balasubramanian, J., 239:371-377, 1988. COX activity was assayed as described by Evans, A. T., et al., “Actions of Cannabis Constituents on Enzymes Of Arachidonate Metabolism Anti-Inflammatory Potential,” Biochem. Pharmacol., 36:2035-2037, 1987. Briefly, purified COX was incubated with arachidonic acid (100 μM) for 2.0 min at 37° C. in the presence or absence of test compounds. The assay was terminated by the addition of TCA, and COX activity was determined by absorbance at 530 nm.

native bovine PDE5 = native bovine PDE5 (Bos taurus, UniProt Q28156); conditions: read-out: Kd of cGMP binding, native bovine PDE5; cited from earlier work
U937 cells = assay: apoptosis induction of U937 cells (active caspase 3 immunofluorescence); format: cell-based; conditions: U937 cells, 24 hours
Method: U937 cells (from ATCC Rockville, Md.) were grown in RPMI media supplemented with 5% FCS, glutamine, antibiotic/antimycotic and sodium pyruvate. Total RNA was isolated from two U937 cultures, one treated with 5 nM TPA for 48 hours and one grown in normal media as listed above, using the Rouche High Pure RNA Isolation Kit (cat# 1 828 665) as per manufacturers protocol. cDNA was then synthesized from the total RNA using GibcoBRL SuperscriptII (Cat # 18064-022) reverse transcriptase as per manufacturers protocol. The resulting cDNA was used as a template for RT-PCR reactions using primer sets specific for PDE2 (forward: […], reverse: […]) or PDE5 (forward: […], reverse: […]). mRNA for PDE2 and 5 were both present in the untreated U937 cells. Upon treatment with TPA, the relative amounts of PDE2 mRNA increased 5 fold. Therefore, U937 cells treated with TPA and driven to differentiate into an activated macrophage like state have elevated levels of PDE2 mRNA (see FIG. 1).
The presence of PDE2 and PDE5 protein within U937 cells was confirmed by indirect immunofluorescence (IIF). U937 cells were cultured as above. Two U937 cultures, one grown in the presence of 5 nM TPA for 48 hours and one grown in normal media were processed. All cultures were collected by centrifugation (Shandon Cytospin, 2 minutes @ 600 rpm) onto poly-L lysine-coated slides and immediately fixed in fresh 3% paraformaldehyde buffered in PBS for 10 minutes. Adherent cultures were grown on coverslips and fixed as above. Cells were permeablized in 0.2% triton-100 for 2 minutes. Slides were blocked with blocking buffer (5% goat serum, 5% glycerol, 1% gelatin from cold water fish skin and 0.04% NaN3 in PBS) for 1 hour at room temperature.
Adherent cells were dislodged by treatment with trypsin EDTA for 5 minutes at 37° C. Cells were then processed for IIF as described above, except that an antibody specific for active caspase 3 was used (as per manufacturer's protocol) instead of antibodies to PDE2 or 5 (Promega Cat. #G7481). The anti-active caspase 3 antibody was diluted 1:200 in blocking buffer and processed according to the manufacturer's protocol. The resulting slides were observed under a fluorescent microscope and a digital images were obtained.
The level of apoptosis in U937 cells was quantified by scoring 500 consecutive cells for the presence of active caspase 3.
The cells were harvested and processed for IIF as described above using an antibody that specifically recognizes active caspase 3. […] Therefore, the inhibition of only PDE4 or PDE5 alone (i.e. without the inhibition of PDE2) is not sufficient to induce apoptosis in U937 cells.

T1 sequence (O76074 46-539 limits assumed): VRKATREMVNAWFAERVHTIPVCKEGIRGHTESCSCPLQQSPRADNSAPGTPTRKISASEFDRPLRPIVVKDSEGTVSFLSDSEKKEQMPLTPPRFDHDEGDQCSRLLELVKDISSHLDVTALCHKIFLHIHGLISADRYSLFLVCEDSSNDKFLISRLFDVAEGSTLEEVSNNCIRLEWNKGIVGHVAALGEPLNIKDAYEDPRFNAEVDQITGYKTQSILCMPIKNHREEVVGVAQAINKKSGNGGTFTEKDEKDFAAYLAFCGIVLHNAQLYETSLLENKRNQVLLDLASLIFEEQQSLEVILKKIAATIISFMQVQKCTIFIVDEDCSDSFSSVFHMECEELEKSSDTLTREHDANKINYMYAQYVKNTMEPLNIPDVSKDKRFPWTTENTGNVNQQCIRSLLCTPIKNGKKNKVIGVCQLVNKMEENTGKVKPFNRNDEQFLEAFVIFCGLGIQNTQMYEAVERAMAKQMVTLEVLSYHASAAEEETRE

## CCCCOC1C2OP(=O)(O)OCC2OC1n1cnc2c(N)ncnc21 (stereo not drawn) [2′-O-butyl-cAMP]
[1]; 3H-cGMP 2 μM
  competition with cGMP in binding to the cGMP binding sites of GST-cGB-PDE5: did not compete

## CCCCOC1C2OP(=O)(O)OCC2OC1n1cnc2c(=O)[nH]c(N)nc21 (stereo not drawn) [2′-O-butyl-cGMP]
[1]; 3H-cGMP 2 μM
  competition with cGMP in binding to the cGMP binding sites of GST-cGB-PDE5: did not compete

## Nc1ncnc2c1ncn2[C@@H]1O[C@@H]2COP(=O)(O)O[C@H]2[C@H]1O [Cyclic AMP]
[1]
  competition with cGMP in binding to the cGMP binding sites of GST-cGB-PDE5: did not compete

## O=c1[nH]cnc2c1ncn2[C@@H]1O[C@@H]2COP(=O)(O)O[C@H]2[C@H]1O [Cyclic IMP]
[1]
  competition with cGMP binding to GST-cGB-PDE5 at high concentration: partially compete

## CC1=C(CC(=O)NCc2ccccc2)c2cc(F)ccc2/C1=C\c1ccncc1 [Example 1, (Z)-5-Fluoro-2-Methyl-(4-Pyridinylidene)-3-(N-Benzyl)-Indenylacetamide]
[2]
  inhibition at 100 µM: < 25%

## Nc1nc2c(nc(Br)n2[C@@H]2O[C@@H]3COP(=O)(O)O[C@H]3[C@H]2O)c(=O)[nH]1 [Example 8-bromo-cGMP, 8-bromo-cGMP]
[1]
  competition with cGMP binding to GST-cGB-PDE5 at high concentration: partially compete

## O=C(O)C1CCN(c2nc(NCc3ccc4c(c3)OCO4)c3cc(Cl)ccc3n2)CC1 [Example E4021]
[1]; 3H-cGMP 2 μM
  competition with cGMP in binding to the cGMP binding sites of GST-cGB-PDE5: None of the PDE5 inhibitors showed any competition

## CSc1ccc(/C=C2/C(C)=C(CC(=O)O)c3cc(F)ccc32)cc1 [Sulindac sulfide, sulindac sulfide, reference compound]
[1]; 3H-cGMP 2 μM
  competition with cGMP in binding to the cGMP binding sites of GST-cGB-PDE5: None of the PDE5 inhibitors showed any competition
[2]
  inhibition at 100 µM: 86%

## Nc1ccn([C@@H]2O[C@@H]3COP(=O)(O)O[C@H]3[C@H]2O)c(=O)n1 [cCMP, cyclic CMP]
[1]; 3H-cGMP 2 μM
  competition with cGMP in binding to the cGMP binding sites of GST-cGB-PDE5: did not compete

## Nc1nc2c(ncn2[C@@H]2O[C@@H]3COP(=O)(O)O[C@H]3[C@H]2O)c(=O)[nH]1 [cGMP, cyclic 3′,5′-guanosine monophosphate]
[1]; 3H-cGMP 2 μM
  competition with cGMP in binding to the cGMP binding sites of GST-cGB-PDE5: specifically bound
[1]; read-out: Kd of cGMP binding to GST-cGB-PDE5 fusion protein, two cGMP binding sites
  Kd: 1600 ± 200 nM
Native bovine PDE5
  Kd: 1300 nM

## O=c1ccn([C@@H]2O[C@@H]3COP(=O)(O)O[C@H]3[C@H]2O)c(=O)[nH]1 [cUMP, cyclic UMP]
[1]; 3H-cGMP 2 μM
  competition with cGMP in binding to the cGMP binding sites of GST-cGB-PDE5: did not compete

## CC1=C(CC(=O)O)c2cc(F)ccc2/C1=C\c1ccc(S(C)(=O)=O)cc1 [exisulind]
[1]; 3H-cGMP 2 μM
  competition with cGMP in binding to the cGMP binding sites of GST-cGB-PDE5: None of the PDE5 inhibitors showed any competition

## COc1ccc(C2CNC(=O)C2)cc1OC1CCCC1 (stereo not drawn) [rolipram, reference compound]
U937 cells; 0.5 uM
  levels of apoptosis compared to normal background (active caspase 3): No increase in the levels of apoptosis

## CCCc1nn(C)c2c(=O)[nH]c(-c3cc(S(=O)(=O)N4CCN(C)CC4)ccc3OCC)nc12 [sildenafil, reference compound]
U937 cells; 0.3 nM
  levels of apoptosis compared to normal background (active caspase 3): No increase in the levels of apoptosis

## CCCOc1ccccc1-c1nc2nn[nH]c2c(=O)[nH]1 [zaprinast]
[1]; 3H-cGMP 2 μM
  competition with cGMP in binding to the cGMP binding sites of GST-cGB-PDE5: None of the PDE5 inhibitors showed any competition
